In PubChem BioAssay AID624254 (Broad Institute, 2012):
Active and inactive are the calls of the source. How the calls were made is not given here.

Assay: Quorum luxo inducers, light production, v cholerae bh1651 luxod47e, confirmatory dose response (AID 624254)
Conditions: V. cholerae BH1651 luxOD47E, luciferase light induction, 6 h; at 50 µM (top of the series)

Row | SMILES | activation (light increase)
1 | CCn1nnnc1SCC(=O)c1ccc2c(c1)OCCO2 | inactive
2 | C=CCNC(=O)CCCOc1ccc(C)cc1 | inactive
3 | CCCn1nnnc1NCc1ccc(OC)cc1OC | inactive
4 | O=C(Nc1ccc(S(=O)(=O)Nc2ncccn2)cc1)C1CC(=O)N(c2ccccc2)C1 (stereo not given) | inactive
5 | Cc1cc(C(=O)OCC(=O)Nc2ccccc2F)c(C)o1 | inactive
6 | COc1ccccc1NC(=O)COC(=O)c1cc2c(s1)CCC2 | inactive
7 | O=C(CN1CCC(O)(c2cccc(C(F)(F)F)c2)CC1)NCCc1ccccc1 | inactive
8 | C[C@H]1CN([C@@H](C)CO)C(=O)c2cccc(NC(=O)Nc3ccc4c(c3)OCO4)c2O[C@H]1CN(C)S(=O)(=O)c1ccccc1 | inactive
9 | O=C(COC(=O)C1CCN(c2ccc(C(F)(F)F)cn2)CC1)NC1CCCCC1 | inactive
10 | O=S(=O)(Cc1ccc(Cl)cc1)N1CCN(Cc2ccccc2)CC1 | inactive
11 | CC(=O)Nc1ccccc1NS(=O)(=O)c1cn(C)cn1 | inactive
12 | C[C@@H]1CN([C@@H](C)CO)C(=O)c2cccc(NC(=O)Nc3ccc4c(c3)OCO4)c2O[C@H]1CN(C)S(=O)(=O)c1ccccc1 | inactive
13 | O=C(NCc1ccccc1F)C(=O)NCC1CCCN1S(=O)(=O)c1ccccc1 (stereo not given) | inactive
14 | Cc1ccc(S(=O)(=O)NCCC(=O)OCC(=O)N(Cc2ccccc2)C(C)(C)C)cc1C | inactive
15 | COc1cc(SC)ccc1C(=O)OCC(=O)NC1CCCC1 | inactive
16 | Cc1ncc(S(=O)(=O)c2ccccc2)c(-c2ccc(Cl)cc2Cl)n1 | inactive
17 | CC(C)Oc1ccc(C(=O)Nc2cc(S(=O)(=O)N3CCOCC3)ccc2N2CCOCC2)cc1 | inactive
18 | COc1ccccc1NC(=O)COc1ccc2c(c1)OCO2 | inactive
19 | CCN(CC)C(=O)c1sc(NC(=O)Cc2ccc(OC)cc2)c(C#N)c1C | inactive
20 | CCCc1ccc2oc(C(=O)N(Cc3ccncc3)CC3CCCO3)c(C)c2c1 (stereo not given) | inactive
21 | O=C(O)CN1CCN(Cc2ccc(F)cc2Cl)C1=O | inactive
22 | CCC(C)Cn1c(S(=O)(=O)O)nc2ccccc21 (stereo not given) | inactive
23 | Cc1ccc(OCCNC(=O)c2ccco2)cc1C | inactive
24 | Cc1ccc(OCCNC(=O)c2cccc(C)c2)cc1 | inactive

Row | SMILES | activation (light increase)
25 | Brc1ccc(C2=Nn3c(nnc3-c3n[nH]c4c3CCC4)SC2)cc1 | inactive
26 | C[C@@H]1CN([C@H](C)CO)C(=O)c2cccc(NC(=O)Nc3ccc4c(c3)OCO4)c2O[C@H]1CN(C)S(=O)(=O)c1ccccc1 | inactive
27 | CCn1c(CC(=O)Nc2cccc(Cl)c2Cl)nnc1SCCOc1ccc(OC)cc1 | inactive
28 | Cc1cc(Cl)ccc1OCC(=O)OCC(=O)NC1CCS(=O)(=O)C1 (stereo not given) | inactive
29 | Cn1cnc(S(=O)(=O)Nc2ccccc2)c1 | inactive
30 | CCOC(=O)CNc1c(-c2ccc(Cl)cc2)nc2cnccn12 | inactive
31 | O=C(Oc1ccnc2cc(Cl)ccc12)N1CCCCCC1 | inactive
32 | O=C(c1cn(-c2ccccc2)nc1-c1cccs1)N1CCOCC1 | inactive
33 | Cc1cc(C(=O)CSc2nnc(-c3ccco3)o2)c(C)n1CC1COc2ccccc2O1 (stereo not given) | inactive
34 | CC(C)[C@H](NC(=O)c1ccccc1F)C(=O)OCC(=O)NC1CC1 | inactive
35 | COc1ccc(-c2nc(N)ncc2Oc2ccccc2Br)c(O)c1 | inactive
36 | C[C@H](CO)N1C[C@H](C)[C@@H](CN(C)S(=O)(=O)c2ccc(Cl)cc2)Oc2c(NC(=O)Nc3ccc4c(c3)OCO4)cccc2C1=O | inactive
37 | CCc1ccc(OCCNC(=O)c2ccco2)cc1 | inactive
38 | Cc1ccc2occ(C(c3nnnn3Cc3ccccc3)N3CCOCC3)c(=O)c2c1 (stereo not given) | inactive
39 | OCCn1c(SC2CCCCC2)nc2ccccc21 | inactive
40 | CCS(=O)(=O)Nc1ccc(C(=O)OC)cc1 | inactive
41 | CC(C)CNC(=O)COC(=O)/C=C/c1ccco1 | inactive
42 | CC(=O)Nc1nonc1NC(C)=O | inactive
43 | COc1ccccc1N1CCN(C(=O)c2cc3c(s2)CCC3)CC1 | inactive
44 | CC(=O)Nc1ccc(NC(=O)c2ccccc2C)cc1 | inactive
45 | COc1ccc(C(=O)N2CCC(C(=O)c3ccc(F)cc3)CC2)cc1 | inactive
46 | FC(F)Oc1ccccc1NC(=S)NCc1ccco1 | inactive
47 | COc1ccccc1NC(=O)COC(=O)c1cc(C)oc1C | inactive
48 | O=S(=O)(Nc1ccc(-c2csc(-c3ccccc3)n2)cc1)c1ccc(F)cc1 | inactive

Row | SMILES | activation (light increase)
49 | CCn1nnnc1NCc1ccc(N2CCCC2)cc1 | inactive
50 | Cc1cc(N2CCC(C)CC2)nc2ccc(N3C(=O)CCC3=O)cc12 | inactive
51 | CCSc1nnc(NC(=O)c2ccc3ccccc3n2)s1 | inactive
52 | Cc1ccc(-c2cc(C(=O)N3N=C(C(F)F)CC3(O)C(F)F)c3ccccc3n2)cc1C (stereo not given) | inactive
53 | CCC(=O)c1coc2ccc(O)cc12 | inactive
54 | CCN(CC(=O)Nc1ccccc1C(F)(F)F)C(=O)CN1C(=O)NC(C)(c2ccc3ccccc3c2)C1=O (stereo not given) | inactive
55 | COc1ccccc1CCNC(=O)C(=O)NCCC1CCCCN1S(=O)(=O)c1cccs1 (stereo not given) | inactive
56 | COc1ccc(CCNC(=O)c2ccc(Cl)cc2Cl)cc1 | inactive
57 | CCCOC(=O)c1ccc(NC(=O)CCC(=O)OCC)cc1 | inactive
58 | CCN1CCN(C(=O)c2ccc(COc3ccc(Cl)cc3)o2)CC1 | inactive
59 | CCCCCn1c(SCC(=O)OCC)nc2cc(C(=O)N3CCC(C(N)=O)CC3)ccc2c1=O | inactive
60 | COC(=O)c1ccc(C2C(C(C)=O)=C(O)C(=O)N2CCO)cc1 (stereo not given) | inactive
61 | CC(=O)c1cc2c(cc1NC(=O)Cc1c(C)noc1C)OCO2 | inactive
62 | Fc1ccc(NCc2cn3ccccc3n2)cc1 | inactive
63 | COCCNc1nc2c(c(=O)n(Cc3ccc(OC)cc3)c(=O)n2C)n1C | inactive
64 | Cc1ccc(C2(C)NC(=O)N(CC(=O)NCCC3=CCCCC3)C2=O)cc1 (stereo not given) | inactive
65 | C[C@H](CO)N1C[C@H](C)[C@H](CN(C)S(=O)(=O)c2ccccc2)Oc2c(NC(=O)Nc3ccc4c(c3)OCO4)cccc2C1=O | inactive
66 | CN(CC(=O)Nc1ccc(OC(F)(F)F)cc1)C(=O)C1CCC1 | inactive
67 | O=C(COc1cccc(Cl)c1)Nc1ccccc1N1CCCCC1 | inactive
68 | Cn1nc(-c2ccc(OCC(=O)NCC3CCCO3)cc2)c2ccccc2c1=O (stereo not given) | inactive
69 | Nc1nnc(SCC(=O)Nc2ccc3c(c2)OCCO3)s1 | inactive
70 | COC(C(=O)Nc1ccccc1C(=O)N1CCOCC1)c1ccccc1 (stereo not given) | inactive
